Consider 39 compounds from the OPERA property sets (Mansouri et al. 2018).

One may read the melting point as the temperature, or range, at which the solid turns liquid. Broadly, the boiling point is the temperature of boiling at a given pressure.

In turn, `NNC(=O)c1ccc(N)cc1` returned a melting point of 226 °C.
Compound `O=[N+]([O-])c1ccccc1` had a boiling point of 211 °C, a log10 Henry constant (atm·m³/mol) of -4.62, a log10 Koc (L/kg) of 1.94 and a log10 vapour pressure (mmHg) of -0.611. Also, the melting point came out at 5.7 °C and the ready biodegradability entry is “not readily biodegradable”.
Regarding `C#CCOc1cc(-n2nc(C(C)(C)C)oc2=O)c(Cl)cc1Cl`, the log10 vapour pressure (mmHg) is -7.73 and the melting point turned out to be 131 °C.
In turn, `O=C(O)[C@@H](O)[C@H](O)[C@H](O)[C@@H](O)C(=O)O` returned a melting point of 126 °C.
In turn, `FC(F)C(F)(F)OCC(Cn1cncn1)c1ccc(Cl)cc1Cl` (stereo unspecified) returned a log10 vapour pressure (mmHg) of -5.87 and a melting point of 6 °C.
With `NC(=O)c1ccccc1OCC(=O)O`, the melting point worked out at 221 °C.
In the case of `CCOP(=O)(OCC)OCC`, the boiling point was 216 °C, the log10 Henry constant (atm·m³/mol) was -7.44, the log10 vapour pressure (mmHg) is -0.406 and the melting point is -56.4 °C. The ready biodegradability entry was “not readily biodegradable”.
Regarding `CON(C)C(=O)Nc1ccc(Br)cc1`, the log10 Koc (L/kg) was 2.1, the log10 vapour pressure (mmHg) is -5.52 and the melting point is 95 °C.
Compound `CC(C)C1=CC[C@H](C)CC1` yielded a boiling point of 168 °C.
`CCCCF` showed a boiling point of 32.5 °C, a log10 vapour pressure (mmHg) of 2.76 and a melting point of -134 °C.
The compound `NS(=O)(=O)c1ccc(S(=O)(=O)CCCO)cc1` returned a melting point of 150 °C.
On to `C=Cc1ccc(Br)cc1`, for which the boiling point amounted to 212 °C, the log10 vapour pressure (mmHg) is -0.108 and the melting point was 7.7 °C.
Turning to `CCCC(C)(COC(N)=O)COC(N)=O`, the melting point came out at 105 °C.
Consider `CCCCCCCCCCCC(=O)OCC`, for which the boiling point was 271 °C and the melting point is -10 °C.
`CN(C)c1cccc(N)c1` came in with a boiling point of 270 °C.
`Oc1ccc2ccc3cccc4ccc1c2c34` registered a log10 vapour pressure (mmHg) of -8.32 and a melting point of 180 °C.
Take `CCCc1ccccc1`: the boiling point is 159 °C, the log10 Henry constant (atm·m³/mol) is -1.98, the log10 Koa turned out to be 4.09 and the log10 Koc (L/kg) turned out to be 2.87. Besides, the log10 biodegradation half-life (days) was 0.602, the log10 vapour pressure (mmHg) came to 0.534, the melting point was -99.5 °C and the ready biodegradability entry is “readily biodegradable”.
The compound `C#C[C@]1(O)CC[C@H]2[C@@H]3CCc4cc(O)ccc4[C@H]3CC[C@@]21C` returned a melting point of 183 °C.
`COC(=O)C(C)(C)C` returned a boiling point of 101 °C and a log10 Henry constant (atm·m³/mol) of -3.37.
As to `Clc1cc(Cl)c(-c2c(Cl)ccc(Cl)c2Cl)cc1Cl`, the log10 Koa came out at 9.27, the log10 Koc (L/kg) worked out at 5.79 and the log10 vapour pressure (mmHg) was -5.07.
Turning to `O=[N+]([O-])c1cc[n+]([O-])cc1`, the melting point is 160 °C.
Turning to `Cc1ccc(O)c(C(C)C)c1`, the boiling point came to 228 °C and the melting point was found to be 36.5 °C.
`CC(C)CCC[C@@H](C)[C@H]1CC[C@H]2[C@@H]3CC=C4C[C@@H](O)CC[C@]4(C)[C@H]3CC[C@]12C` displayed a boiling point of 360 °C and a melting point of 145 °C.
Turning to `Nc1ccn([C@H]2CC[C@@H](CO)O2)c(=O)n1`, the melting point is 218 °C.
On to `CCOc1ccc(Br)cc1`, for which the boiling point worked out at 231 °C and the melting point amounted to 4 °C.
In turn, `O=S(=O)(O)c1ccc2ccc(S(=O)(=O)O)cc2c1` had a melting point of 199 °C.
As for `C[Si]1(c2ccccc2)O[Si](C)(c2ccccc2)O[Si](C)(c2ccccc2)O1` (stereo unspecified), the melting point amounted to 100 °C.
The compound `O=C(O)c1ccc([N+](=O)[O-])c(O)c1` returned a melting point of 230 °C.
As to `CS(=O)(=O)c1cc(C(F)(F)F)ccc1C(=O)c1cnoc1C1CC1`, the log10 Henry constant (atm·m³/mol) is -9.73, the log10 vapour pressure (mmHg) is -8.12 and the melting point turned out to be 140 °C.
As to `O=C(O)c1cc([N+](=O)[O-])ccc1[N+](=O)[O-]`, the log10 Koc (L/kg) was 2.3.
In the case of `OCC1O[C@@H](Oc2ccccc2)[C@H](O)[C@@H](O)[C@H]1O` (stereo partly specified), the melting point was determined as 166 °C.
In turn, `Cc1c(N)cccc1N` displayed a boiling point of 260 °C, a log10 vapour pressure (mmHg) of -2.61 and a melting point of 106 °C.
As to `CCCCCCCCCCCCC1CCCCC1`, the boiling point came out at 331 °C and the melting point was 12.5 °C.
`CC(=O)N(C(C)=O)c1ccc(/N=N/c2ccccc2C)cc1C` had a melting point of 75 °C.
Take `COC(=O)c1ccc(C(F)(F)F)nc1S(=O)(=O)[N]([Na])C(=O)Nc1nc(OC)cc(OC)n1`: the log10 Koc (L/kg) came out at 1.46.
With `O=C1C(=Cc2ccccc2)CCCC1=Cc1ccccc1`, the melting point was found to be 118 °C.
In the case of `COB(OC)OC`, the boiling point is 68 °C, the log10 vapour pressure (mmHg) was found to be 2.13 and the melting point is -31.6 °C.
Compound `CC(C)N1C(=O)c2ccccc2NS1(=O)=O` returned a log10 Koc (L/kg) of 1.52 and a melting point of 138 °C.
`CC1CCCO1` (stereo unspecified): the boiling point was found to be 78 °C, the log10 Henry constant (atm·m³/mol) is -4.03 and the log10 vapour pressure (mmHg) came to 1.99.
